Key:
Type in all cases: cell-based, human
[1] = system: colon cancer cell lines; test: MTT assay, cell viability in colon cancer cell lines; settings: comparison of HPA3P with anticancer drugs
Procedure: (§1) The cells were plated in 96-well plates at a density of 2 × 10^4 cells per well. After incubating overnight, the cells were treated with HPA3, HPA3P, HPA3P2, oxaliplatin, and 5-FU at various concentrations. After the cells had incubated for 6 h or 24 h, the culture medium was replaced with fresh medium. Twenty microlitres of a 5 mg/ml stock solution of 3-(4,5-dimetylthiazol-2-yl)-2,5-diphenyltetrazolium bromide (Sigma Aldrich) was added to each well, and the cells were incubated for 1 h at 37°C in a humidified atmosphere of 5% CO2. After removal of the supernatant, 100 μl of DMSO was added to each well. The plates were subsequently incubated on a horizontal shaker for 20 min at room temperature, and the optical density was measured at an absorbance of 570 nm using a microplate reader (SPECTRA MAX PLUS, Molecular Devices, CA, USA).

[2] = system: RIPK3; test: RIPK3 expression, western blot in HCT116 p53+/+ cells; settings: 3 μM GSK΄872 pretreatment, Figure 5C
Procedure: Figure 5 Low concentrations of HPA3P induce RIPK3-dependent necroptosis in HCT116 p53^+/+ cells (A) HCT116 p53^+/+ cells were treated with HPA3P for 6 h. The cell lysates were analysed for RIPK1 and RIPK3 expression by western blotting. The cells were pretreated with 30 μM Nec-1s (B) or 3 μM GSK΄872 (C) for 2 h and (D) transfected with negative-control (scramble), RIPK1, RIPK3, and MLKL siRNA for 24 h. The cells were subsequently treated with HPA3P. HPA3P-induced cytotoxicity was measured by MTT assay. (B–D) The cells were treated with Nec-1s or GSK΄872, and transfected with siRNA for 24 h. The cell lysates were analysed by western blot analysis. (E) The cells were treated with 3 μM GSK΄872 for 2 h and subsequently treated with 30 μM HPA3P for 6 h. The cells were stained with PI for flow cytometric analysis. […] RIPK3 expression was analysed by western blotting. […] Cell viability was measured by MTT assay. ^*p < 0.05, ^**p < 0.01 indicate a significant difference between the indicated groups. […] (H) The colon cancer cell lysates used in this study were analysed by western blotting. […]
The cells were plated in 6-well plates at a density of 1 × 10^6 cells per well. […] After incubating for 6 h or 24 h, the cells were scraped, and the proteins were quantified by the Bradford method. […] The reaction was detected using a Clarity™ Western ECL Substrate (BioRad, CA, USA). […]

[3] = system: HCT116 p53+/+ cells; test: PI staining analysed by flow cytometry, HCT116 p53+/+; settings: 3 μM GSK΄872 for 2 h and/or 30 μM HPA3P for 6 h, Figure 5E
Procedure: Figure 3 HPA3P-induced necrosis and morphological changes in human colon cancer cell lines All cell lines were treated with HPA3P for 30 min and then stained with Hoechst 33342/PI or PI alone. (A) Pictures of Hoechst 33342/PI-stained cells were taken using an Olympus IX71 fluorescence microscope (magnification LCAch N 20X). (B) PI-stained cells were analysed by flow cytometry. (C) Morphological changes in colon cancer cells treated with HPA3P for 5 min were observed using an Olympus IX71 light microscope (magnification LUCPlaFL N 40X). The black arrows indicate membrane blebs. […] Morphological changes were observed under an Olympus IX71 fluorescence microscope (magnification LUCPlaFL N 40X). […]
Figure 5 Low concentrations of HPA3P induce RIPK3-dependent necroptosis in HCT116 p53^+/+ cells (A) HCT116 p53^+/+ cells were treated with HPA3P for 6 h. The cell lysates were analysed for RIPK1 and RIPK3 expression by western blotting. […] HPA3P-induced cytotoxicity was measured by MTT assay. […] The cell lysates were analysed by western blot analysis. […] RIPK3 expression was analysed by western blotting. […] Cell viability was measured by MTT assay. ^*p < 0.05, ^**p < 0.01 indicate a significant difference between the indicated groups. […] (H) The colon cancer cell lysates used in this study were analysed by western blotting. […]

[4] = system: HCT116 p53+/+ cells; test: MTT assay, HCT116 p53+/+; settings: for restoration of cell viability in HPA3P-treated cells: pretreated with 30 μM Nec-1s or 3 μM GSK΄872 for 2 h, then HPA3P, Figure 5B-5C
Procedure: The cell lysates were analysed for RIPK1 and RIPK3 expression by western blotting. […] The cells were subsequently treated with HPA3P. HPA3P-induced cytotoxicity was measured by MTT assay. […] The cell lysates were analysed by western blot analysis. […] The cells were stained with PI for flow cytometric analysis. (F) The cells were treated with 30 μM HPA3P for the indicated times. RIPK3 expression was analysed by western blotting. […] Cell viability was measured by MTT assay. ^*p < 0.05, ^**p < 0.01 indicate a significant difference between the indicated groups. NS, not significant. (H) The colon cancer cell lysates used in this study were analysed by western blotting. (I) Schematic diagram of HPA3P-induced necroptosis.
as §1

[5] = system: SW480 cells; test: MTT assay, SW480; settings: SW480, 24 h, Figure 4E
Procedure: as §1

[6] = system: HT-29 cells; test: MTT assay, HT-29; settings: HT-29, 24 h, Figure 4E
Procedure: as §1

[7] = system: LoVo cells; test: MTT assay, LoVo; settings: 24 h, Figure 4E
Procedure: as §1

[8] = system: cleaved-caspase 3 and cleaved-PARP; test: Western blot for apoptosis markers in colon cancer cell lines; settings: whole-cell lysates, 24 h, staurosporine as positive control, Figure 1C
Procedure: The cells were plated in 6-well plates at a density of 1 × 10^6 cells per well. After incubating overnight, the cells were treated with HPA3P at the indicated concentration. After incubating for 6 h or 24 h, the cells were scraped, and the proteins were quantified by the Bradford method. The proteins were resolved on SDS-PAGE and transferred to PVDF membranes (Millipore, Bedford, USA). The blots were blocked with TBST containing 5% skim milk for 1 h, after which the membranes were incubated overnight at 4°C with primary antibodies against cleaved caspase-3 (#9664), PARP (#9542, Cell Signaling Technology, MA, USA), HMGB1 (ab18256, Abcam, Cambridge, UK), and GAPDH (SC-25778, Santa Cruz, CA, USA). The blots were then washed with TBST buffer and incubated with a secondary horseradish peroxidase-conjugated antibody (Santa Cruz, CA, USA). The reaction was detected using a Clarity™ Western ECL Substrate (BioRad, CA, USA).

## O=c1[nH]cc(F)c(=O)[nH]1 [5-FU]
[1]; 6 h, Figure 4D
  cell viability: no effect on cell viability
[1]; 24 h, Figure 4E
  cell viability: no effect on cell viability

## CC(C)S(=O)(=O)c1ccc2nccc(Nc3ccc4scnc4c3)c2c1 [GSK΄872]
[2]
  effect on HPA3P-induced increases in RIPK3 expression: inhibited
[3]
  PI staining, gate P1: 91.47%
  PI staining, gate P2: 7.34%
[4]; pretreated with 3 μM GSK΄872 for 2 h, then HPA3P for 24 h, Figure 5G
  protective effect on HPA3P-mediated cytotoxicity: inhibited HPA3P-induced cytotoxicity
[4]
  restoration of cell viability in HPA3P-treated cells: restored cell viability

## CN1C(=O)NC(Cc2c[nH]c3c(Cl)cccc23)C1=O (centres unmarked) [Nec-1s]
[4]
  restoration of cell viability in HPA3P-treated cells: did not restore cell viability

## O=C1[O][Pt]2([NH][C@@H]3CCCC[C@H]3[NH]2)[O]C1=O [oxaliplatin, Oxaliplatin]
[1]; 6 h, Figure 4D
  cell viability: no effect on cell viability
[5]
  cell viability: significant decrease in cell viability
[6]
  cell viability: reduced cell viability only slightly
[4]; 24 h, Figure 4E
  cell viability: significant decrease in cell viability
[7]
  cell viability: significant decrease in cell viability

## CN[C@@H]1C[C@H]2O[C@@](C)([C@@H]1OC)n1c3ccccc3c3c4c(c5c6ccccc6n2c5c31)C(=O)NC4 [staurosporine]
[8]
  cleaved-caspase 3 and cleaved-PARP: detected
